Results published in publication PMC12030627, “Radioiodinated Bicyclic RGD Peptide Derivatives for Enhanced Tumor Accumulation” (Pharmaceuticals, 2025).
Like-named read-outs stand apart in the source and are kept apart here. Starred links: 1 amine or outer side, 2 acyl side, 3 side chain; linkers in the order of their positions; H or OH if unused. Positions of bridges follow the written chain, without caps; N, C: chain ends. Non-standard residues stand in square brackets, D forms with d. Residues, ends and D or L forms follow the SMILES beside them. *: point of attachment. Butanoyl(4-(4-I-phenyl)) = O=C(CCCc1ccc(I)cc1)*; TBMB = c1c(C[*:1])cc(C[*:3])cc1C[*:2]; Benzoyl(3-I) = O=C(c1cccc(I)c1)*; 4Abz = Nc1ccc(C(=O)O)cc1

Experiment: Biodistribution in U-87 MG tumor-bearing mice
Type: in vivo, BALB/c nu-nu mice
Conditions: male, BALB/c nu-nu, mouse, iv, 37 kBq, total radioactivity, U-87 MG-bearing mice, mean ± SD, n = 3; for tissue uptake at 1 h / tissue uptake dose at 1 h: 1 h after i.v. administration; for tissue uptake at 2 h / tissue uptake dose at 2 h: 2 h after i.v. administration; for tissue uptake at 6 h / tissue uptake dose at 6 h: 6 h after i.v. administration; for tissue uptake at 5 min / tissue uptake dose at 5 min: 5 min after i.v. administration; for tissue uptake at 0.5 h / tissue uptake dose at 0.5 h: 30 min after i.v. administration
Protocol: Animal experiments were performed in compliance with institutional animal care regulations, with the study protocol approved by the Experimental Animal Committee of Osaka Medical and Pharmaceutical University (Approval Numbers: 21–76, 22–76, and 23–76). Four-week-old male BALB/c nu-nu mice (Japan SLC, Shizuoka, Japan) were housed under a 12 h light/12 h dark cycle with free access to food and water. Tumor-bearing mice were established by suspending U-87 MG cells (2 × 10^6 cells/mouse) in PBS(–) and subcutaneously injecting 100 μL of the suspension into the right hind leg. For co-implantation models, A549 cells (2 × 10^6 cells/mouse) were suspended in PBS(–) and inoculated (100 μL) into the left hind leg of the same mice already inoculated with U-87 MG cells. Mice with tumor size approximately 10 mm in diameter, 4–5 weeks after inoculation, were used for biodistribution studies. Animals in which either tumor was not viable were excluded from the experiment.
U-87 MG-bearing mice (n = 42, 8–9 weeks old; 22–27 g) were randomly assigned into groups and administered [^125I]bcRGDpal or [^125I]bcRGDiba via intravenous injection (37 kBq in 100 μL of PBS containing 0.1% Tween 80 (PBS-T80)). At 5 min, 30 min, 1 h, 2 h, 6 h, 12 h, or 24 h post-injection, the mice were euthanized (n = 3 per time point). The heart, kidneys, liver, brain, pancreas, spleen, lung, small intestine, large intestine, muscle, skin, stomach, bone, and tumors were excised. Each organ’s weight and radioactivity were measured by a NaI well-type scintillation counter, and the % ID/g was calculated. To investigate the correlation between integrin expression and radioactivity accumulation, biodistribution at 2 h after administration of [^125I]bcRGDpal or [^125I]bcRGDiba was assessed in A549 and U-87 MG co-implantation mice (n = 5) using the same procedure. Additionally, co-implantation mice were injected with [^125I]bcRGDdimer (37 kBq/100 μL PBS-T80) and euthanized at 30 min, 2 h, and 4 h post-injection (n = 4 per time point), and % ID/g values were calculated as described above. The minimum sample size needed for the biodistribution study in U-87 MG-bearing mice was calculated using G Power software version 3.1.9.7. The calculation was based on a two-tailed test, with an effect size of 3.9, a significance level (α) of 0.05, and a statistical power (1 − β) of 0.8. […] The minimum required sample size for the biodistribution study in A549 and U-87 MG co-implantation mice was also calculated to be four animals per group (effect size = 2.5, α = 0.05, 1 − β = 0.8). To guarantee objective results, the experiment was carried out in a blinded manner. Specifically, drug administration and radioactivity measurements were conducted by different investigators to eliminate potential bias.

[1] = liver, read-out: Radioactivity in liver
[2] = lung, read-out: Radioactivity in lung
[3] = muscle, read-out: Radioactivity in muscle
[4] = pancreas, read-out: Radioactivity in pancreas
[5] = small intestine, read-out: Radioactivity in small intestine
[6] = spleen, read-out: Radioactivity in spleen
[7] = stomach, read-out: Radioactivity in stomach
[8] = thyroid, read-out: Radioactivity in thyroid

N=C(N)NCCC[C@@H]1NC(=O)[C@H]2CSCc3cc(cc(c3)CSC[C@H](C(N)=O)NC(=O)[C@H](CC(=O)O)NC(=O)CNC1=O)CSC[C@H](NC(=O)CNC(=O)[C@H](CO)NC(=O)c1ccc(NC(=O)CNC(=O)[C@H](CO)NC(=O)[C@@H]3CCCN3C(=O)[C@@H]3CCCN3C(=O)[C@@H]3CCCN3C(=O)[C@H](CCCCNC(=O)c3cccc(I)c3)NC(=O)CCCc3ccc(I)cc3)cc1)C(=O)N[C@@H](Cc1c[nH]cn1)C(=O)N1CCC[C@H]1C(=O)N[C@@H](CCC(N)=O)C(=O)N2 [[^125I]bcRGDiba] ({Butanoyl(4-(4-I-phenyl))}-K(Benzoyl(3-I))PPPSG[4Abz]SGCHPQ[dC]RGD[dC]-NH2; linker 10-14-18 via TBMB)
tissue uptake at 1 h [1]: 5.7 ± 0.7 %ID/g
tissue uptake at 2 h [1]: 5.1 ± 0.4 %ID/g
tissue uptake at 6 h [1]: 3.4 ± 0.4 %ID/g
tissue uptake at 12 h (liver, 12 h after i.v. administration, read-out: Radioactivity in liver): 1.4 ± 0.2 %ID/g
tissue uptake at 24 h (liver, 24 h after i.v. administration, read-out: Radioactivity in liver): 0.6 %ID/g
tissue uptake at 5 min [2]: 10.7 ± 1.9 %ID/g
tissue uptake at 0.5 h [2]: 9.4 ± 0.3 %ID/g
tissue uptake at 1 h [2]: 8.2 ± 0.6 %ID/g
tissue uptake at 2 h [2]: 7.5 ± 0.4 %ID/g
tissue uptake at 6 h [2]: 5.3 ± 0.5 %ID/g
tissue uptake at 12 h (lung, 12 h after i.v. administration, read-out: Radioactivity in lung): 2.6 ± 0.3 %ID/g
tissue uptake at 24 h (lung, 24 h after i.v. administration, read-out: Radioactivity in lung): 1.2 ± 0.1 %ID/g
tissue uptake at 5 min [3]: 1.4 ± 0.4 %ID/g
tissue uptake at 0.5 h [3]: 1.5 ± 0.2 %ID/g
tissue uptake at 1 h [3]: 1.5 ± 0.1 %ID/g
tissue uptake at 2 h [3]: 1.5 ± 0.2 %ID/g
tissue uptake at 6 h [3]: 1.2 ± 0.3 %ID/g
tissue uptake at 12 h (muscle, 12 h after i.v. administration, read-out: Radioactivity in muscle): 0.5 ± 0.1 %ID/g
tissue uptake at 24 h (muscle, 24 h after i.v. administration, read-out: Radioactivity in muscle): 0.3 %ID/g
tissue uptake at 5 min [4]: 2.3 ± 0.4 %ID/g
tissue uptake at 0.5 h [4]: 2 ± 0.2 %ID/g
tissue uptake at 1 h [4]: 1.5 ± 0.2 %ID/g
tissue uptake at 2 h [4]: 1.4 ± 0.2 %ID/g
tissue uptake at 6 h [4]: 1 ± 0.2 %ID/g
tissue uptake at 12 h (pancreas, 12 h after i.v. administration, read-out: Radioactivity in pancreas): 0.5 ± 0.1 %ID/g
tissue uptake at 24 h (pancreas, 24 h after i.v. administration, read-out: Radioactivity in pancreas): 0.2 %ID/g
tissue uptake at 5 min [5]: 2.3 ± 0.4 %ID/g
tissue uptake at 0.5 h [5]: 3 ± 0.1 %ID/g
tissue uptake at 1 h [5]: 4.8 ± 0.6 %ID/g
tissue uptake at 2 h [5]: 4.9 ± 0.3 %ID/g
tissue uptake at 6 h [5]: 5.6 ± 1.1 %ID/g
tissue uptake at 12 h (small intestine, 12 h after i.v. administration, read-out: Radioactivity in small intestine): 2.2 ± 0.5 %ID/g
tissue uptake at 24 h (small intestine, 24 h after i.v. administration, read-out: Radioactivity in small intestine): 0.9 ± 0.1 %ID/g
tissue uptake at 5 min [6]: 2.9 ± 0.5 %ID/g
tissue uptake at 0.5 h [6]: 3 ± 0.2 %ID/g
tissue uptake at 1 h [6]: 2.5 ± 0.2 %ID/g
tissue uptake at 2 h [6]: 2.3 ± 0.3 %ID/g
tissue uptake at 6 h [6]: 1.7 ± 0.5 %ID/g
tissue uptake at 12 h (spleen, 12 h after i.v. administration, read-out: Radioactivity in spleen): 0.9 ± 0.1 %ID/g
tissue uptake at 24 h (spleen, 24 h after i.v. administration, read-out: Radioactivity in spleen): 0.4 %ID/g
tissue uptake dose at 5 min [7]: 0.4 ± 0.1 %ID
tissue uptake dose at 0.5 h [7]: 0.8 ± 0.2 %ID
tissue uptake dose at 1 h [7]: 0.7 ± 0.1 %ID
tissue uptake dose at 2 h [7]: 0.7 ± 0.3 %ID
tissue uptake dose at 6 h [7]: 0.8 ± 0.2 %ID
tissue uptake dose at 12 h (stomach, 12 h after i.v. administration): 0.2 ± 0.1 %ID
tissue uptake dose at 24 h (stomach, 24 h after i.v. administration): 0.2 %ID
tissue uptake dose at 5 min [8]: 0.1 %ID
tissue uptake dose at 0.5 h [8]: 0.1 ± 0.1 %ID
tissue uptake dose at 1 h [8]: 0.1 ± 0.1 %ID
tissue uptake dose at 2 h [8]: 0.1 ± 0.1 %ID
tissue uptake dose at 6 h [8]: 0.1 %ID
